Measurements published in the METLIN SMRT retention time set (Domingo-Almenara et al. 2019).

Test: gradient 5% acetonitrile 3 min, to 50% in 2 min, to 85% in 15 min, held 3 min, 100 µL/min
Conditions: column: Zorbax Extend-C18 2.1 x 50 mm; eluents: water / acetonitrile, 0.1% formic acid
Procedure, shortened: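 The system's dead and dwell volumes were 40 μL and 900 μL, with a Zorbax Extend-C18 column (2.1 × 50 mm, 1.8 μm) run at 100 μL/min in water and acetonitrile containing 0.1% formic acid each. Pure standards were analyzed in mixtures of ~100 molecules by HPLC–quadrupole time-of-flight mass spectrometry in positive and negative ionization mode. Retention time was assigned from computationally picked, manually inspected adduct peaks.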

| Compound | RP-LC retention time [s] |
| --- | --- |
| COc1ccc(CN2CCN(C(c3ccc(F)cc3)c3ccc(F)cc3)CC2)c(OC)c1OC | 857 |
| CCn1ccc2c(cc(C(=O)Nc3ccc(OC)cc3OC)n2C)c1=O | 692 |
| CC1CCN(CCNC(=O)C2CCN(S(=O)(=O)c3ccc4c(c3)sc(=O)n4C)CC2)CC1 | 622 |
| Cc1ccc(CNC(=O)C2CCCN2S(=O)(=O)c2cc3c(cc2Cl)NC(=O)CO3)cc1 (configuration not stated) | 786 |
| Cc1cccc(NC(=O)C2(C)CCCCC(=O)N2)c1 (configuration not stated) | 695 |
| Cc1cc(C(=O)NOCCO)c(Nc2ccc(I)cc2F)n(C)c1=O | 718 |
| Cc1ccc(NS(=O)(=O)c2cc3n(c2)CCN(C(C)C)C3=O)cc1 | 777 |
| O=C1COc2ccc(S(=O)(=O)N3CCCC3C(=O)Nc3cccc(Cl)c3)cc2N1 (configuration not stated) | 835 |
| CC(=O)N1CCC(C(=O)N2CCN(S(=O)(=O)c3ccc4c(c3)sc(=O)n4C(C)C)CC2)CC1 | 727 |
| COC(=O)c1cc(OCC(=O)NCc2ccc3c(c2)OCO3)c2cc(OC)ccc2n1 | 749 |
| COc1ccc(NC(=O)N2CCC(c3nc(C(=O)N(C)C)c(C)o3)CC2)cc1 | 676 |
| CC(=O)c1ccc(NC(=O)Cn2c(-c3ccc(F)cc3)nc(C)cc2=O)cc1 | 953 |
| Cc1ccc(-c2nc(C)c(C(=O)NC3CC3)s2)cc1 | 888 |
| CCCCCn1c(=O)c2ccccc2n(Cc2nc(-c3cccc(Cl)c3)no2)c1=O | 1100 |
| CCOC(=O)C(=O)NCc1nnnn1C1CCCCC1 | 655 |
| Cn1c(N2CCCC(C(=O)NCC3CCN(Cc4ccc(F)cc4)CC3)C2)cc(=O)n(C)c1=O (configuration not stated) | 590 |
| Cc1nc2cccnc2n1CCN1CCN(C(=O)Nc2ccc(F)c(Cl)c2)CC1 | 618 |
| Fc1ccccc1-c1noc(-c2nc(C3CC3)no2)n1 | 1050 |

Next, values leading:

| RP-LC retention time [s] | Compound |
| --- | --- |
| 706 | CCn1ccc2c(cc(C(=O)Nc3ccc(OC)cc3)n2C)c1=O |
| 571 | Cc1ccc(-c2cn3cc(C(=O)NC(C)c4cccnc4)ccc3n2)cc1 (configuration not stated) |
| 580 | CNC(=O)[C@@H]1CN(C(=O)c2ccc3c(c2)OCO3)C[C@H]1c1n[nH]c(C)n1 |
| 728 | Cn1nc(C(=O)N2CCCC2)c2c1CCN(C(=O)Nc1cc(F)ccc1F)C2 |
| 862 | Cn1c(=O)c2cc(C(=O)N3CCN(c4ccc(Cl)cc4)CC3)sc2n(C)c1=O |
| 649 | O=C(Cc1ccc(Cl)cc1)N1CC(n2cnnc2C2CC2)C1 |
| 587 | CCCC(=O)Nc1ccc(-c2cn3ccc(C)nc3n2)cc1 |
| 880 | COc1ccc(-c2cc3nn(CC(=O)NCc4ccc(F)cc4)c(=O)n3c(C)n2)cc1 |
| 902 | CCOc1ccc(CNC(=O)c2cc(S(=O)(=O)N3CCCC3)c(C)n2C)cc1 |
| 1010 | COc1ccc(Cl)cc1NC(=O)c1cnc2c(c1)c(=O)n(C)c(=O)n2-c1ccccc1 |
| 862 | Cc1ccc(-c2cn3c(CC(=O)Nc4ccc(F)cc4C)csc3n2)cc1C |
| 670 | Cc1ccc2cc(CCC(=O)N3CCN(c4ncccn4)CC3)c(=O)[nH]c2c1 |
| 736 | Cn1nc2n(c1=O)CCN(C(=O)C1(c3ccccc3)CCCC1)CC2 |
| 1270 | CCOc1ccc(NC(=O)c2c(O)c3cccnc3n(-c3ccccc3)c2=O)cc1 |
| 744 | CCN1CCN(S(=O)(=O)c2cc(-c3nc(C(C)C)cs3)sc2C)CC1 |
| 675 | Cc1cc(C)n(CCNC(=O)CSc2ccc(F)cc2)n1 |
| 816 | CCCCOc1ccc(C(=O)N2CCN(c3cc(C)nc(N4CCCCC4)n3)CC2)cc1 |
| 767 | COCc1cc(=O)n(CC(=O)Nc2ccccc2)c(N2CCOCC2)n1 |
| 755 | CCCC(=O)NCc1nc(-c2ccccc2Cl)no1 |
